Data as given in patent publication US9034866B2 (Genentech, Inc., priority 2012, dated 2015).
Read-outs that look alike come from different tables or passages of the source.

How the values were obtained:
[1] = system: p52 (NF-kB2) nuclear translocation in HeLa cells; experiment: p52 nuclear translocation assay (non-classical NF-kB signaling), high content imaging; type: cell-based; conditions: 100 ng/mL anti-lymphotoxin beta receptor antibody for 5 hours, read-out: p52 HeLa Transloc Assay (IC50)
Experimental: (§1) (2) A second set of cell assay are used to define the selectivity of NIK inhibitors toward inhibition of classical vs. non-classical NF-kB signaling and rely on quantification of the nuclear translocation of p52 (NF-kB2) and REL-A (p65) using high content cellular imaging. For the p52 (non-classical NF-kB signaling) nuclear translocation assay, HeLa cells are treated with different concentrations of compounds (0.2% DMSO final) in medium containing 10% fetal bovine serum and then stimulated with 100 ng/mL, of an anti-lymphotoxin beta receptor antibody (R&D Systems) for 5 hours. In the REL-A nuclear translocation assay, HeLa cells are incubated with compounds (0.2% DMSO final) for 4.5 hours in medium containing 10% fetal bovine serum before stimulating them with 10 ng/mL tumor necrosis factor (TNF)-α (R&D Systems) for 30 minutes. Cells are fixed with 4% paraformaldehyde, permeabilized by adding 0.1% Triton X-100 in phosphate buffered saline, and then are incubated with either 2 ug/mL anti-p52 antibody (Millipore) or 400 ng/mL anti-REL-A (p65) antibody (Santa Cruz Biotechnology). Finally, the cells are incubated with an Alexa488-labeled secondary antibody (Invitrogen) and DRAQ5 DNA stain (Biostatus). Imaging is carried out using an Opera reader (Perkin Elmer) and data are analyzed with the aid of Acapella software (Perkin Elmer). The p52 or REL-A translocation into the nucleus is quantified by the ratio of the nuclear to cytoplasmic signal intensity. […] The compounds in listed in Table 1 have the corresponding inhibitory value (IC50 in micromolar) for NIK p52 Translocation Assay as set forth in Table 2.

[2] = biological target: nuclear factor-kappa B (NF-kB)-inducing kinase (NIK) (Homo sapiens (Human), UniProt Q99558); experiment: NIK Enzyme Inhibition Assay (Transcreener ADP fluorescence polarization); type: biochemical; conditions: purified NIK 0.2-1 nM, 10 uM ATP, Morrison's quadratic equation; read-out: NIK ADP-FP (Ki uM)
Procedure, shortened: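 Fluorescence-polarization ADP detection (tracer displacement, 633 nm excitation) read after EDTA/Brij quench. Reaction: 0.2-1 nM insect-cell-derived NIK, 10 uM ATP, HEPES pH 7.2 with MgCl2 and DTT, 1% DMSO, 1-3.5 h with compounds.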

[3] = system: REL-A (p65) nuclear translocation in HeLa cells; experiment: REL-A nuclear translocation assay (classical NF-kB signaling), high content imaging; type: cell-based; conditions: Homo sapiens, compounds 4.5 hours, then 10 ng/mL TNF-α for 30 minutes, read-out: REL-A HeLa Transloc Assay (IC50)
Experimental: as §1
The compounds in listed in Table 1 has the corresponding inhibitory value (IC50 in micromolar) for NIK RelA Translocation Assay as set forth in Table 2.

nuclear factor-kappa B (NF-kB)-inducing kinase (NIK), sequence (Q99558 whole entry): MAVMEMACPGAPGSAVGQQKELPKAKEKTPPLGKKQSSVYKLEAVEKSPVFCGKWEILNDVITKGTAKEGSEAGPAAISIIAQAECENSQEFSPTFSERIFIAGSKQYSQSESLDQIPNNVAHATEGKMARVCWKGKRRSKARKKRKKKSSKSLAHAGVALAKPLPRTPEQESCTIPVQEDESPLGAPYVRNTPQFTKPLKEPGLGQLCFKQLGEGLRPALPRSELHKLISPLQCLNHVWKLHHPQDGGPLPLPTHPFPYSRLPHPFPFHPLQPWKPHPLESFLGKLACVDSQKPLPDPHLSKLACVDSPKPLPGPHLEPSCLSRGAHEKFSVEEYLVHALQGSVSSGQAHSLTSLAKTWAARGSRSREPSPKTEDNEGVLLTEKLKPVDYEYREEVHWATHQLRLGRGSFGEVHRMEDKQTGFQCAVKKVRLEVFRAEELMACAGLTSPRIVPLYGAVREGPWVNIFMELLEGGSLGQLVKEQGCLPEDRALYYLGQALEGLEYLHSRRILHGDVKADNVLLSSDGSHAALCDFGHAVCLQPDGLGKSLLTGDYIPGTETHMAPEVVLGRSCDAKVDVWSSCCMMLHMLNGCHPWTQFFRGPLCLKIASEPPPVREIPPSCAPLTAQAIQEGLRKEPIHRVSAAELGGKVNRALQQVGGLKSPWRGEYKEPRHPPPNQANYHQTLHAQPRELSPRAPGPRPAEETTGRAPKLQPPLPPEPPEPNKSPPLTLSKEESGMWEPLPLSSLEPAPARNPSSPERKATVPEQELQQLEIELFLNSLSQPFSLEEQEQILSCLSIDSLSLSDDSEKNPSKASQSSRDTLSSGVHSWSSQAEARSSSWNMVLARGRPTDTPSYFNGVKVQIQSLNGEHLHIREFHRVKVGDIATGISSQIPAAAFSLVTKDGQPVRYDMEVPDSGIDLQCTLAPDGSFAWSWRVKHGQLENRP

CC(C)(O)C#Cc1cc2c(cc1F)OCCn1c-2nc(C(N)=O)c1-c1nc(C2CC2)n[nH]1
IC50 ([1]; Homo sapiens, HeLa, 5 h): 112 nM
Ki [2]: 0.002 µM

Cc1nc([C@](C)(O)C#Cc2cc3c(cc2F)C2CC(C2)n2cc(C(N)=O)nc2-3)no1
IC50 ([1]; Homo sapiens, HeLa, 5 h): 792 nM
Ki [2]: 0.003 µM

CNC(=O)c1c(C(N)=O)nc2n1C1CC(C1)c1cc(F)c(C#C[C@@](C)(O)c3cc(C)on3)cc1-2
IC50 ([1]; Homo sapiens, HeLa, 5 h): 683 nM
Ki [2]: 0.008 µM

CC(C)(O)C#Cc1cc2c(cc1F)OCCn1c-2nc(C(N)=O)c1C(O)c1cccc(C(F)(F)F)c1 (stereo not drawn)
IC50 ([1]; Homo sapiens, HeLa, 5 h): 344 nM
Ki [2]: 0.019 µM

COC[C@](C)(O)C#Cc1cc2c(cc1F)C1CC(C1)n1cc(C(N)=O)nc1-2
IC50 ([3]; HeLa): > 20000 nM
IC50 ([1]; Homo sapiens, HeLa, 5 h): 2100 nM

Cc1cc([C@](C)(O)C#Cc2ccc3c(c2)-c2nc(C(N)=O)c([C@H](O)c4ccnn4C)n2C2CC3C2)no1
IC50 ([1]; Homo sapiens, HeLa, 5 h): 1200 nM

Cc1nc([C@](C)(O)C#Cc2ccc3c(c2)-c2nc(C(N)=O)sc2[C@@H](F)CO3)no1
IC50 ([3]; HeLa): > 20000 nM

Cc1nc([C@](C)(O)C#Cc2ccc3c(c2)-c2nc(C(N)=O)sc2[C@@](C)(F)CO3)no1
IC50 ([3]; HeLa): > 20000 nM

CN1CC[C@@](O)(C#Cc2ccc3c(c2)-n2nc(C(N)=O)cc2[C@H](F)CO3)C1=O
IC50 ([3]; HeLa): > 20000 nM

Cc1cc([C@](C)(O)C#Cc2ccc3c(c2)-n2nc(C(N)=O)cc2[C@H](F)CO3)no1
IC50 ([3]; HeLa): > 20000 nM
IC50 ([1]; Homo sapiens, HeLa, 5 h): 379 nM

COC[C@](C)(O)C#Cc1ccc2c(c1)-c1nc(C(N)=O)sc1[C@H](F)CO2
IC50 ([3]; HeLa): 15300 nM
IC50 ([1]; Homo sapiens, HeLa, 5 h): 682 nM

CN1CC[C@@](O)(C#Cc2cc3c(cc2F)C2CC(C2)c2c-3nc(C(N)=O)n2C)C1=O (mixture of isomers) [Example 381, (±)-10-[3-hydroxy-3-(2-pyridyl)but-1-ynyl]-5,6,7,12-tetrahydro-5,7 methanobenzo[c]imidazo[1,2-a]azepine-2-carboxamide]
IC50 ([3]; HeLa): > 20000 nM
IC50 ([1]; Homo sapiens, HeLa, 5 h): 285 nM

CC(O)(C#Cc1cc2c(cc1F)C1CC(C1)n1cc(C(N)=O)nc1-2)CF (racemic)
IC50 ([1]; Homo sapiens, HeLa, 5 h): 424 nM
Ki [2]: 0.0031 µM

CN1CCC(O)(C#Cc2ccc3c(c2)-c2nc(C(N)=O)sc2CCO3)C1=O (racemic)
IC50 ([3]; HeLa): > 20000 nM
IC50 ([1]; Homo sapiens, HeLa, 5 h): 300 nM

CN1CCC(O)(C#Cc2cc3c(cc2F)OCCn2cc(C(N)=O)nc2-3)C1=O (racemic)
IC50 ([3]; HeLa): > 20000 nM
IC50 ([1]; Homo sapiens, HeLa, 5 h): 4100 nM

CC(C)(O)C#Cc1cc2c(cc1F)C1CC(C1)n1c-2nc(C(N)=O)c1CNC(=O)C1CC1 (racemic)
IC50 ([3]; HeLa): > 20000 nM
IC50 ([1]; Homo sapiens, HeLa, 5 h): 1400 nM

CNC(=O)c1c(C(N)=O)nc2n1C1CC(C1)c1ccc(C#CC(C)(C)O)cc1-2 (racemic)
IC50 ([3]; HeLa): > 20000 nM
IC50 ([1]; Homo sapiens, HeLa, 5 h): 736 nM

CNC(=O)c1c(C(N)=O)nc2n1C1CC(C1)c1ccc(C#CC3(O)CCCC3)cc1-2 (racemic)
IC50 ([3]; HeLa): > 20000 nM
IC50 ([1]; Homo sapiens, HeLa, 5 h): 709 nM

CN1CCC[C@@](O)(C#Cc2ccc3c(c2)-c2nc(C(N)=O)sc2C(F)(F)CO3)C1=O (racemic)
IC50 ([3]; HeLa): > 20000 nM
IC50 ([1]; Homo sapiens, HeLa, 5 h): 184 nM

Cc1nc([C@](C)(O)C#Cc2ccc3c(c2)-c2nc(C(N)=O)sc2[C@@H](C)CO3)no1 (racemic)
IC50 ([3]; HeLa): > 20000 nM

Cc1nc([C@](C)(O)C#Cc2cc3c(cc2F)OC[C@@H](N(C)C)c2sc(C(N)=O)nc2-3)no1 (racemic) [Example 256]
IC50 ([3]; HeLa): > 20000 nM
IC50 [1]: 2000 nM
IC50 ([1]; Homo sapiens, HeLa, 5 h): 2900 nM

NC(=O)c1nc2n(c1C(O)c1ccn[nH]1)C1CC(C1)c1cc(F)c(C#CC3(O)CCCC3)cc1-2 (racemic) [Example 310]
IC50 ([3]; HeLa): > 20000 nM
IC50 ([1]; Homo sapiens, HeLa, 5 h): 2600 nM

C[C@H]1COc2ccc(C#C[C@]3(O)CCCN(C)C3=O)cc2-c2nc(C(N)=O)sc21 (racemic) [Example 501]
IC50 ([3]; HeLa): > 20000 nM

Cc1cc([C@@](C)(O)C#Cc2ccc3c(c2)-n2nc(C(N)=O)cc2[C@H](C)CO3)no1 (racemic) [Example 513]
IC50 ([3]; HeLa): > 20000 nM

Cc1cc([C@](C)(O)C#Cc2cc3c(cc2F)OC[C@H](N(C)C)c2sc(C(N)=O)nc2-3)no1 (single isomer, unassigned) [Example 257]
IC50 ([3]; HeLa): 20000 nM

CNC(=O)c1c(C(N)=O)nc2n1CCOc1cc(F)c(C#CC(C)(O)COC)cc1-2 (stereo not drawn) [Example 108]
IC50 [3]: 20000 nM

CNC(=O)c1c(C(N)=O)nc2n1CCOc1cc(F)c(C#CC(C)(O)CF)cc1-2 (stereo not drawn) [Example 109]
IC50 ([1]; Homo sapiens): 272 nM

CC(O)(C#Cc1cc2c(cc1F)OCCn1cc(C(N)=O)nc1-2)c1nccs1 (stereo not drawn) [Example 144]
IC50 ([1]; Homo sapiens, HeLa, 5 h): 483 nM

Cc1cc([C@](C)(O)C#Cc2cc3c(cc2F)OC[C@@H](N(C)C)c2sc(C(N)=O)nc2-3)no1 [Example 254]
IC50 ([3]; HeLa): 20000 nM

Cc1cc([C@](C)(O)C#Cc2ccc3c(c2)-c2nc(C(N)=O)c([C@@H](O)c4ccnn4C)n2C2CC3C2)no1 [Example 359]
IC50 ([1]; Homo sapiens, HeLa, 5 h): 1200 nM

Cc1nc([C@](C)(O)C#Cc2ccc3c(c2)-c2nc(C(N)=O)sc2[C@H](F)CO3)no1 [Example 464]
IC50 ([3]; HeLa): > 20000 nM

CN1CC[C@@](O)(C#Cc2ccc3c(c2)-c2nc(C(N)=O)sc2[C@](O)(CF)CO3)C1=O [Example 465]
IC50 ([3]; HeLa): > 20000 nM

Cc1nc([C@](C)(O)C#Cc2ccc3c(c2)-c2nc(C(N)=O)sc2[C@](C)(F)CO3)no1 [Example 469]
IC50 ([3]; HeLa): > 20000 nM

C[C@@H]1COc2ccc(C#C[C@]3(O)CCCN(C)C3=O)cc2-c2nc(C(N)=O)sc21 [Example 493, 10-[2-[(3R)-3-hydroxy-1-methyl-2-oxo-pyrrolidin-3-yl]ethynyl]-N3-methyl-5,6,7,12-tetrahydro-5,7-methanobenzo[c]imidazo[1,2-a]azepine-2,3-dicarboxamide]
IC50 ([3]; HeLa): > 20000 nM

Cc1cc([C@@](C)(O)C#Cc2ccc3c(c2)-n2nc(C(N)=O)cc2[C@@H](C)CO3)no1 [Example 519]
IC50 ([3]; HeLa): > 20000 nM

CN1CC[C@@](O)(C#Cc2ccc3c(c2)-n2nc(C(N)=O)cc2C2(COC2)CO3)C1=O [Example 714, (R)-9-((3-hydroxy-1-methyl-2-oxopyrro-lidin-3-yl)ethynyl)-5H-spiro[ben-zo[b]pyrazolo[1,5-d][1,4]oxazepine-4,3′-oxetane]-2-carboxamide]
Ki [2]: 0.0033 µM

NC(=O)c1cc2n(n1)-c1cc(C#CC3(O)CCCC3)ccc1OCC21COC1 [Example 715, 9-((1-hydroxycyclopentyl)ethynyl)-5H-spiro[benzo[b]pyrazolo[1,5-d][1,4]oxa-zepine-4,3′-oxetane]-2-carboxamide]
Ki [2]: 0.1 µM

Cc1cc([C@](C)(O)C#Cc2ccc3c(c2)-n2nc(C(N)=O)cc2C2(CCC2)CO3)no1 [Example 716, (R)-9-(3-hydroxy-3-(5-methylisoxazol-3-yl)but-1-yn-1-yl)-5H-spiro[benzo[b]py-razolo[1,5-d][1,4]oxazepine-4,1′-cyclo-butane]-2-carboxamide]
Ki [2]: 0.008 µM

CN1CC[C@@](O)(C#Cc2ccc3c(c2)-n2nc(C(N)=O)cc2C2(CCC2)CO3)C1=O [Example 717, (R)-9-((3-hydroxy-1-methyl-2-oxopyrro-lidin-3-yl)ethynyl)-5H-spiro[ben-zo[b]pyrazolo[1,5-d][1,4]oxazepine-4,1′-cyclobutane]-2-carboxamide]
Ki [2]: 0.0005 µM

CN1CC[C@@](O)(C#Cc2ccc3c(c2)-n2nc(C(N)=O)c(C(F)F)c2CCO3)C1=O [Example 718, (R)-3-(difluoromethyl)-9-((3-hydroxy-1-methyl-2-oxopyrrolidin-3-yl)ethynyl)-4,5-dihydrobenzo[b]pyrazolo[1,5-d][1,4]oxazepine-2-carboxamide]
Ki [2]: 0.0003 µM

CN1CC[C@@](O)(C#Cc2ccc3c(c2)-n2nc(C(N)=O)c(Cl)c2C(F)(F)CO3)C1=O [Example 719, (R)-3-chloro-4,4-difluoro-9-((3-hydroxy-1-methyl-2-oxopyrrolidin-3-yl)ethynyl)-4,5-dihydrobenzo[b]pyrazolo[1,5-d][1,4]oxazepine-2-carboxamide]
Ki [2]: 0.0004 µM

CN1CC[C@@](O)(C#Cc2ccc3c(c2)-n2nc(C(N)=O)c(CO)c2CCO3)C1=O [Example 720, (R)-9-((3-hydroxy-1-methyl-2-oxopyrro-lidin-3-yl)ethynyl)-3-(hydroxymethyl)-4,5-dihydrobenzo[b]pyrazolo[1,5-d][1,4]oxazepine-2-carboxamide]
Ki [2]: 0.001 µM
